Laboratory results as given in US20250195464A1, “ALOTAKETAL COMPOUNDS AND DERIVATIVES THEREOF FOR USE AS ANTIVIRAL AGENTS” (priority 2022, published 2025).
pEC50: −log10 of the molar value. Read-outs that look alike come from different tables or passages of the source.

Tested on: SARS-CoV-2 Omicron
Assay: microbe, parasite or virus in culture
Type: cell-based
Details: Severe acute respiratory syndrome coronavirus 2, Calu-3

CC(=O)O[C@]1(C)C[C@@H](/C=C(\C)CCC=C(C)C)O[C@@]2(C=C(CO)[C@H]3CC(=O)C(C)=C[C@H]3O2)C1 [Alotaketal C] showed a pEC50 (read-out: Nucleocapsid EC50, Omicron) of 6.85 and a pEC50 (read-out: dsRNA EC50, Omicron) of 5.81.
